We go through 18 compounds from US10421718B2, “EBNA1 inhibitors and their method of use” (priority 2013, dated 2019).

Each structure is given as a SMILES string.

By IC50 is commonly meant the concentration at which inhibition is half-maximal. Low readings indicate greater potency, high ones weaker potency.

For the assay, the target named is T1, His-EBNA1 (DNA binding domain of EBNA1, amino acids 459-607) (Epstein-Barr virus, UniProt P03211).
T1 construct: made in house; host or cells: E. coli
T1 sequence (P03211 459-607): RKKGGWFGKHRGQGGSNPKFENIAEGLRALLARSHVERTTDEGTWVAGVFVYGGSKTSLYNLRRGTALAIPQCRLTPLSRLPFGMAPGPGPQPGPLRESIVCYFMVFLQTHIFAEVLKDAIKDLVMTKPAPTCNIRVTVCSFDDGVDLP
Put plainly: Inhibition of 5′-biotin-oPL4624 binding to His-EBNA1 using Alpha Screen technology. The following applies: Alpha Screen Activity (IC50, inhibition of 5′-biotin-oPL4624 binding to His-EBNA1), 15 nM His-EBNA1, 0.2 nM bt-oPL4624, 2 hr room temperature. As to the method:
Inhibition of 5′-biotin-oPL4624 binding to His-EBNA1 using Alpha Screen technology: Assays were performed using the DNA binding domain of EBNA1 (amino acids 459-607), which was His-tagged (His-EBNA1) and the self-complementary biotinylated (bt) oligonucleotide with the sequence 5′-bt-[…]-ATGCTACCC-3′ (bt-oPL4624). The protein was expressed in E. coli and purified according to Barwell, et al. (Barwell J A, Bochkarev A, Pfuetzner R A, Tong H, Yang D S, Frappier L, Edwards A M. (1995) Overexpression, purification, and crystallization of the DNA binding and dimerization domains of the Epstein-Barr virus nuclear antigen 1. J Biol Chem. 270: 20556-9.). The bt-oPL4624 oligonucleotide was purchased from Integrated DNA Technologies, Inc (IDT). AlphaScreen donor, acceptor beads and white, opaque 384-well assay plates were purchased from PerkinElmer, Inc.
Assays contained 15 nM His-EBNA1, 0.2 nM bt-oPL4624, 5 μg/mL AlphaScreen streptavidin donor beads and nickel chelate acceptor beads, and a series of concentrations of test compound ranging from 3.2 nM to 100 μM in a total volume of 40 μL assay buffer (25 mM Tris, pH 7.2, 160 mM NaCl, 1 mM MgCl2). His-EBNA1 (30 nM) and bt-oPL4624 (0.4 nM) were preincubated with 10 μg/mL nickel chelate AlphaScreen acceptor bead, or 10 μg/mL streptavidin AlphaScreen donor bead, respectively, for 30 minutes at room temperature in assay buffer. Twenty microliters of His-EBNA1/acceptor bead mix and bt-oPL4624/donor bead mix were transferred to assay plates containing […] of 1:3 serial dilutions of test compounds previously prepared in DMSO at concentrations ranging from 0.32 μM to 10 mM. Nonspecific binding was determined with 5 μg/mL AlphaScreen acceptor bead in the absence of His-EBNA1. After 2 hr incubation at room temperature, the AlphaScreen signal was measured on the Envision plate reader (PerkinElmer, Inc.) at 680 nm excitation and 570 nm emission. Inhibition values at each concentration of test compound were determined by setting 100% equal to raw data values in the absence of EBNA1 and 0% equal to the raw data values in the presence of EBNA1. Nonlinear regression fits of the inhibition values to a one-site dose-response equation were performed using GraphPad Prism.
In turn, `CNS(=O)(=O)c1cccc(C#Cc2cccc(C(=O)O)c2-n2cccc2)c1` [Entry 1, 3-(3-methylsulfamoyl-phenylethynyl)-2-pyrrol-1-yl-benzoic acid] yielded an IC50 of 1000 to 10000 nM.
Then `O=C(O)c1cccc(C#Cc2c[nH]c3ccccc23)c1-n1cccc1` [Entry 2, 3-(1H-indol-3-ylethynyl)-2-pyrrol-1-yl-benzoic acid], with less than 1000 nM; and `CS(=O)(=O)Nc1cccc(C#Cc2cccc(C(=O)O)c2-n2cccc2)c1` [Entry 3, 3-[2-(3-methanesulfonamidophenyl)ethynyl]-2-(1H-pyrrol-1-yl)benzoic acid], with less than 1000 nM; and `NS(=O)(=O)c1cccc(C#Cc2cccc(C(=O)O)c2-n2cccc2)c1` [Entry 4, 2-(1H-pyrrol-1-yl)-3-[2-(3-sulfamoylphenyl)ethynyl]benzoic acid], with less than 1000 nM.
Then `NC(=O)c1cccc(C#Cc2cccc(C(=O)O)c2-n2cccc2)c1` [Entry 5, 3-[2-(3-carbamoylphenyl)ethynyl]-2-(1H-pyrrol-1-yl)benzoic acid], with less than 1000 nM; and `O=C(O)c1cccc(C#Cc2ccc3nccn3c2)c1-n1cccc1` [Entry 6, 3-(2-{imidazo[1,2-a]pyridin-6-yl}ethynyl)-2-(1H-pyrrol-1-yl)benzoic acid], with 10000 to 100000 nM.
Regarding `O=C(O)c1cccc(C#Cc2ccnc(O)c2)c1-n1cccc1` [Entry 7, 3-[2-(2-hydroxypyridin-4-yl)ethynyl]-2-(1H-pyrrol-1-yl)benzoic acid], the IC50 fell in the range of 10000 to 100000 nM.
The same measure for `O=C(O)c1cccc(C#Cc2ccc3cn[nH]c3c2)c1-n1cccc1` [Entry 8, 3-[2-(1H-indazol-6-yl)ethynyl]-2-(1H-pyrrol-1-yl)benzoic acid]: 1000 to 10000 nM; for `CC1(C)CN(c2cccc(C#Cc3cccc(C(=O)O)c3-n3cccc3)c2)C1=O` [Entry 9, 3-{2-[3-(3,3-dimethyl-2-oxoazetidin-1-yl)phenyl]ethynyl}-2-(1H-pyrrol-1-yl)benzoic acid]: less than 1000 nM; for `CC(C)(CNc1cccc(C#Cc2cccc(C(=O)O)c2-n2cccc2)c1)C(=O)O` [Entry 10, 3-(2-{3-[(2-carboxy-2,2-dimethylethyl)amino]phenyl}ethynyl)-2-(1H-pyrrol-1-yl)benzoic acid]: 1000 to 10000 nM.
For `O=C(O)c1cccc(C#Cc2cnc3cnccn23)c1-n1cccc1` [Entry 11, 3-(2-{imidazo[1,2-a]pyrazin-3-yl}ethynyl)-2-(1H-pyrrol-1-yl)benzoic acid], the IC50 was less than 1000 nM.
Then `O=C(O)c1cccc(C#Cc2cnc3ccccn23)c1-n1cccc1` [Entry 12, 3-(2-{imidazo[1,2-a]pyridin-3-yl}ethynyl)-2-(1H-pyrrol-1-yl)benzoic acid], with less than 1000 nM; and `O=C(O)c1cccc(C#Cc2cccc3nccn23)c1-n1cccc1` [Entry 13, 3-(2-{imidazo[1,2-a]pyridin-5-yl}ethynyl)-2-(1H-pyrrol-1-yl)benzoic acid], with 10000 to 100000 nM.
In the case of `O=C(O)c1cccc(C#Cc2cnc3[nH]ccc3c2)c1-n1cccc1` [Entry 14, 2-(1H-pyrrol-1-yl)-3-(2-{1H-pyrrolo[2,3-b]pyridin-5-yl}ethynyl)benzoic acid], the IC50 is 1000 to 10000 nM.
Then `Cn1ccc2c(C#Cc3cccc(C(=O)O)c3-n3cccc3)cccc21` [Entry 15, 3-[2-(1-methyl-1H-indol-4-yl)ethynyl]-2-(1H-pyrrol-1-yl)benzoic acid], with less than 1000 nM; and `Cn1ccc2cc(C#Cc3cccc(C(=O)O)c3-n3cccc3)ccc21` [Entry 16, 3-[2-(1-methyl-1H-indol-5-yl)ethynyl]-2-(1H-pyrrol-1-yl)benzoic acid], with less than 1000 nM.
The same measure for `O=C(O)c1cccc(C#Cc2ccc3ccsc3c2)c1-n1cccc1` [Entry 17, 3-[2-(1-benzothiophen-6-yl)ethynyl]-2-(1H-pyrrol-1-yl)benzoic acid]: 1000 to 10000 nM; for `O=C(O)c1cccc(C#Cc2cccc3cc[nH]c23)c1-n1cccc1` [Entry 18, 3-[2-(1H-indol-7-yl)ethynyl]-2-(1H-pyrrol-1-yl)benzoic acid]: less than 1000 nM.
